Source: patent publication US8226943B2, “Antibodies to notch receptors” (OncoMed Pharmaceuticals, Inc., priority 2008, dated 2012)

What was measured:
PE13 breast tumor cells = assay: PE13 breast tumor xenograft growth; type: in vivo, NOD/SCID mice
Experimental: In certain embodiments, NOD/SCID mice injected with 50,000 PE13 or T3 breast tumor cells were treated with anti-Notch2/3 antibody 59R1 or control antibody 1B7.11 two days following cell injections. Antibodies were dosed at 10 mg/kg twice week.
In a further experiment, anti-Notch2/3 antibodies were tested for an effect on breast tumor growth. NOD/SCID mice were injected with 50,000 PE13 or T3 breast tumor cells, and tumors were allowed to grow to a size of between 65 to 200 mm^3 after which mice were randomized (n=10 per experimental group), and antibodies administration begun. Animals were treated with 15 mg/kg of either control 1B7.11 antibodies or anti-Notch2/3 59R1 antibodies twice weekly. Tumor size was measured twice weekly, and tumor volume was calculated as described (see Michieli et al., 2004).
The 59R1 IgG2 antibody was also tested in vivo in the breast tumor xenograft lines OMP-B34, OMP-B39, OMP-B44, PE13, and UM-T1, the pancreas tumor xenograft line OMP-PN8, and the colon tumor xenograft line OMP-C8. These tumor xenograft lines were established by adhering to procedures described in Al-Hajj et al., 2003, Proc. Natl. Acad. Sci. USA, 100:3983-3988. Female NOD/SCID immuno-compromised mice 7-10 weeks old were used for the establishment of the breast tumor xenografts and male NOD/SCID mice were used for the OMP-Pn8 and OMP-C8 tumor-models (Harlan, Indianapolis, Ind.). The 59R1 IgG2 antibody was also tested in vivo in a Colo-205 colon tumor xenograft model. Female immunodeficient bg/nu XID mice on a Swiss CD-1 background were used for the Colo-205 xenograft tumor model. In case of the breast cancer models, slow-releasing estrogen pellets (0.36 mg) had to be implanted. Mice were subcutaneously injected on the right flank with 50,000 (OMP-B34, OMP-B39, OMP-B44, PE13, and UM-T1) or 1×10^7 (Colo-205) viable cells, respectively, in a mixture of PBS (without magnesium or calcium) and Matrigel at a 1:1 ratio. The injected total volume per mouse was 200 μl with 50% being Matrigel. Once the tumor had reached a size between 65-200 mm^3, the mice were randomized. Antibodies were administered weekly and tumors measured twice weekly. LZ1 (a human antibody that recognizes lyzozyme) or 1B711 (a murine IgG1 antibody that recognizes the hapten trinitrophenol) was used as a control antibody for treatment of each tumor type. Tumor volume was calculated as described Al-Hajj et al. (2003). Data are expressed as the mean and the mean±S.E.M. Group means were compared using Student's two-tailed, unpaired t-test. […] All statistical analysis was performed using Microsoft EXCEL and Graph Pad PRISM.
In one embodiment, NOD/SCID mice were injected with PE13 breast tumor cells. The mice were treated with anti-Notch2/3 antibody 59R1, anti-Notch2/3 antibody 59R5, or control antibody. Antibodies were dosed at 15 mg/kg once per week in a “preventative” mode where dosing was initiated two days after cell injection.
In one embodiment, to evaluate the effect of 59R5 on cancer stem cells, a tumor recurrence study was carried out in the PE13 breast tumor model. NOD/SCID mice were injected with PE13 breast tumor cells. The tumors were allowed to grow for 40 days before treatments were initiated. The mice were treated with taxol at 15 mg/kg twice per week for 5 weeks, in combination with either control antibody or anti-Notch 2/3 antibody 59R5. After 5 weeks, the taxol treatments were stopped and the antibody treatments were continued.
Tumor volumes and p values for each experiment are shown relative to the control group. The PE13, C28 and Colo205 studies were carried out as described in Example 14. PN8 studies were carried out as described above. For the PN8 experiment, the control is gemcitabine alone and values for 59R1 and 59R5 are the combinations with gemcitabine. Antibodies were dosed once per week at 15 mg/kg for all experiments.

PE13 tumors = assay: Microarray analysis of 59R1 and 59R5 treated PE13 tumors; type: in vivo, mice; conditions: for Fold Foxc2 / Fold Gzma / Fold Hey2 / Fold Heyl / Fold Mmp9 / Fold Notch3 / Fold Pdcd1lg2 / Fold Rgs4 / Fold Rgs5: treated vs. control, mean of 3 animals per group
Description: The numbers are mean differential expression values for treated vs. control animals, with 3 animals per group.

[1] = biological target: T1, human Notch1 with residues 382-386 mutated to the corresponding human Notch2 residues (Homo sapiens, UniProt P46531, E383K/N382H/N386L/S385A); assay: FACS binding to mutant human Notch1 carrying Notch2 residues; conditions: HEK 293 transiently transfected
T1 construct: several point mutants were created within full-length Notch1; expressed in transfected cells; host or cells: HEK 293, transient, co-transfected with GFP
T1 sequence (P46531 19-2555 N382H/E383K/S385A/N386L): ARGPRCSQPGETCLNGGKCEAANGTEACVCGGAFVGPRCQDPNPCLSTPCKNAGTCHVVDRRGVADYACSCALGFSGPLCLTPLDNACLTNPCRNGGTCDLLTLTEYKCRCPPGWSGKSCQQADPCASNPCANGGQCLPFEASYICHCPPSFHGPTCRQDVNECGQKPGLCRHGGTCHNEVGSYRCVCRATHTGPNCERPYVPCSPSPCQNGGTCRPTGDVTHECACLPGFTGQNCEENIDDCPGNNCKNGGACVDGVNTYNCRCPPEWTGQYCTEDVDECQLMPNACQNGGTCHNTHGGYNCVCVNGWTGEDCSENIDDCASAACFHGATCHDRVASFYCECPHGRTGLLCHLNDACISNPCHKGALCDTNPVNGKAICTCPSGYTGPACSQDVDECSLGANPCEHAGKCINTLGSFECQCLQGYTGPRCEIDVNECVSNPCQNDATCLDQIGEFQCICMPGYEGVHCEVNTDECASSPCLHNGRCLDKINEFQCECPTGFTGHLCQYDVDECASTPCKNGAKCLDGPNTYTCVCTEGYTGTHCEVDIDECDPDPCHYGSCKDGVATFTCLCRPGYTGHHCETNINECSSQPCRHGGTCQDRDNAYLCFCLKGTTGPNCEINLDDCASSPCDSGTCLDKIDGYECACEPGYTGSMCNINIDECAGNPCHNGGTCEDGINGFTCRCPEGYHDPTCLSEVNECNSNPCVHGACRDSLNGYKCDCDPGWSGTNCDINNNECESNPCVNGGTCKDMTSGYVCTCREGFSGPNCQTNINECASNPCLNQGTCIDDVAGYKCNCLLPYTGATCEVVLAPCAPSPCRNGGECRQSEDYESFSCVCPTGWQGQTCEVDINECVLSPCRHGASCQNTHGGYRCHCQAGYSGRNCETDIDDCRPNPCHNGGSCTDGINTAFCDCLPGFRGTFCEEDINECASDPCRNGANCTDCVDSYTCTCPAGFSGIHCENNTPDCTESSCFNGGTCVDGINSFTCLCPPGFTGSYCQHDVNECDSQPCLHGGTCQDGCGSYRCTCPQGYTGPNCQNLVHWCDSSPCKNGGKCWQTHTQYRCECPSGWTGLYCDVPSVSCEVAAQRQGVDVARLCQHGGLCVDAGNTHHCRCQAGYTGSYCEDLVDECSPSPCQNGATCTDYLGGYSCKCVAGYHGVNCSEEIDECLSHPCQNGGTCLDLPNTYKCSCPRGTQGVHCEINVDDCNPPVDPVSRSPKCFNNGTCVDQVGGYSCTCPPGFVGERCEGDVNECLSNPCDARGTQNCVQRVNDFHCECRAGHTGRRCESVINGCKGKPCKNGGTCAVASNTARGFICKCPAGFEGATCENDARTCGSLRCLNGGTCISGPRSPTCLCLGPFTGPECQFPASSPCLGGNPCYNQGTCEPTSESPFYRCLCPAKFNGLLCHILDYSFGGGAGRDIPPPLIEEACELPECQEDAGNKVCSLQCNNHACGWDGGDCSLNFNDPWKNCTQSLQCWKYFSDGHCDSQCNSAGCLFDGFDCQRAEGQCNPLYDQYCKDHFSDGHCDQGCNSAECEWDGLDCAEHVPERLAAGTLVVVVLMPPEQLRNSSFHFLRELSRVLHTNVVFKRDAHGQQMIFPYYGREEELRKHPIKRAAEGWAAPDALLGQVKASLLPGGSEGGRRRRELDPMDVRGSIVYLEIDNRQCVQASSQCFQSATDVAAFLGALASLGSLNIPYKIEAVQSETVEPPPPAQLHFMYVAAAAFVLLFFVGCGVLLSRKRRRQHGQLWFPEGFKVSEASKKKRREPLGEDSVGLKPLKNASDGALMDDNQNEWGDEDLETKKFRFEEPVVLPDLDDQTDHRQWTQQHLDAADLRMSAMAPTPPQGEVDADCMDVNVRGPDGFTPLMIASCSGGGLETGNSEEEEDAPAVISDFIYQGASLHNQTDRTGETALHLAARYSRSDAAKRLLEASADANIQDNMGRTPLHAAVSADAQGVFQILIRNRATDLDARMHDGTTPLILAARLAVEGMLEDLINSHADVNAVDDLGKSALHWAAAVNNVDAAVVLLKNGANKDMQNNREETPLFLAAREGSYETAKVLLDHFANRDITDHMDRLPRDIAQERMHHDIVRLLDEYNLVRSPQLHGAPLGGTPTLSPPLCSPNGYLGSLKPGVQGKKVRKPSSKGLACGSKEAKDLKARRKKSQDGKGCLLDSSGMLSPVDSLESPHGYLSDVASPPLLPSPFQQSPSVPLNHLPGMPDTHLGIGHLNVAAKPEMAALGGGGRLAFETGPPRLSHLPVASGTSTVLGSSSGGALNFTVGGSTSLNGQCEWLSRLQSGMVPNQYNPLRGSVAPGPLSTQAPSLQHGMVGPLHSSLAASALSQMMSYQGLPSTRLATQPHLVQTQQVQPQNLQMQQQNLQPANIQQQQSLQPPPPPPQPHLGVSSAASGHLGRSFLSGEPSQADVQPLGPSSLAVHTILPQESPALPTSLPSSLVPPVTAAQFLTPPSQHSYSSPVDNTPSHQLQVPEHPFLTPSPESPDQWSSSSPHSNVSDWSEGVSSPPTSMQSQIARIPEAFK
Experimental: A comparison analysis of the EGF 10 regions of human Notch1, Notch2, and Notch4 and the EGF 9 region of human Notch3 (the equivalent of EGF 10 in the other Notch receptors) was performed to determine likely binding sites for 59R1 (FIG. 14A). As a result of the analysis, several point mutants were created within full-length Notch2, converting residues within EGF 10 to the corresponding amino acids in human Notch 1. Also, conversely, point mutations were made in hNotch1 EGF 10 converting residues to the corresponding hN2 residues. Mutants in full-length Notch sequences were generated by QuikChange® mutagenesis (Stratagene) and verified by sequencing. Binding to the mutants was determined by FACS analysis (FIGS. 14B and 14C). 59R1 was detected by PE-conjugated goat anti-human Fc gamma specific antibody (Jackson Immunochemicals, #109-116-170). […] The corresponding residues in hNotch3 are histidine 361, alanine 364, and isoleucine 365.
The binding epitope of 59R5 was determined. As was described in Example 3 for analysis of antibody 59R1, several point mutants were created within full-length Notch1, converting residues within EGF10 to the corresponding amino acids in human Notch 2. […] 59R1 and 59R5 were detected by PE-conjugated goat anti-human Fc gamma specific antibody (Jackson Immunochemicals, #109-116-170). […]

FACS binding to mutant hNotch1 with EGF 10 residues mutated to hNotch2 residues 385-389 [1]	Substance	PE13 tumor growth compared to control (PE13 breast tumor cells; 10 mg/kg twice week, started two days following cell injections)	PE13 Tumor vol relative to the control group (PE13 breast tumor cells; 15 mg/kg once per week)	PE13 breast cancer growth relative to control antibody (PE13 breast tumor cells; established tumors, 15 mg/kg once a week)	PE13 tumor growth compared to control (PE13 breast tumor cells; established tumors, 15 mg/kg twice weekly)	Fold Foxc2 (PE13 tumors)	Fold Gzma (PE13 tumors)	Fold Hey2 (PE13 tumors)	Fold Heyl (PE13 tumors)	Fold Mmp9 (PE13 tumors)	Fold Notch3 (PE13 tumors)	Fold Pdcd1lg2 (PE13 tumors)	Fold Rgs4 (PE13 tumors)	Fold Rgs5 (PE13 tumors)	inhibition of PE13 tumor growth (PE13 breast tumor cells; 15 mg/kg once per week, preventative mode (dosing two days after cell injection))	PE13 tumor recurrence after high-dose taxol treatment (PE13 breast tumor cells; taxol 15 mg/kg twice per week for 5 weeks plus antibody, then antibody only)	Notch pathway as measured by gene expression (Foxc2, Hey2, Heyl, Notch3) (PE13 tumors; microarray, p<0.01)
does bind	59R1: human IgG2 antibody binding Notch2 and Notch3; heavy and light chain SEQ ID NO:16 and 18; ATCC PTA-9547	significantly reduced	0.25	inhibit breast cancer growth	significantly reduced	−5.10	7.42	−4.40	−3.33	−1.92	−2.10	2.36	−2.71	−4.32			
able to bind	59R5: human antibody that specifically binds human Notch 2 and human Notch 3; heavy and light chain SEQ ID NO:49 and 18; ATCC PTA-10170		0.18			−3.00	2.80	−2.46	−2.79	−2.35	−1.86	4.97	−2.90	−2.14	greater than 80%	significantly delay tumor recurrence	significantly inhibited the Notch pathway
